These results are taken from US20220152019A1, “COMPOUNDS, COMPOSITIONS, AND METHODS FOR TREATING INFLAMMATORY OR IMMUNE-MEDIATED CONDITIONS OF SURFACE TISSUES” (Landos Biopharma, Inc., priority 2020, published 2022).

Experiment [1] has as its system splenic CD3+CD4+ T cells and CD45+ cells. Nature of the experiment: Flow cytometry of spleen cells from the IMQ-induced psoriasis model. Format: in vivo, mice. As to conditions: topical BT-11 vs DMSO control. How it is done: (§1) Imiquimod (IMQ)-induced model. C57BL/6 mice were anesthetized, shaved, and briefly exposed to depilatory cream on the surface of the back. Mice were given three days to recover from the procedure prior to entry to the study. After 3 days, mice were challenged with approximately 60 mg of […] imiquimod cream daily by spreading cream over the shaved area. Treatment with BT-11 dihydrochloride salt (200 μg) in dimethyl sulfoxide (DMSO) or a DMSO control lacking BT-11 occurred by topical application to the shaved area. Mice were scored for erythema, scaling and skin thickness, summarized into a composite psoriasis area and severity index (PASI) score on a scale from 0 to 12, on day 7.
Analysis. Spleens were excised and crushed by microscope slides. Red blood cells were hypotonically lysed from the resultant suspension. Samples were filtered, washed and centrifuged prior to staining. Production of TNF, IL-17, and IL-21 were quantified from CD3+CD4+ T cells and IL6 from CD45+ by flow cytometry.
(In general: A flow cytometer gives signals particle by particle.)

The test system of experiment [2] is cervical lymph node CD3+CD4+ T cells. Briefly: Flow cytometry of cervical lymph node cells from the MC903-induced atopic dermatitis model. The conditions noted are these: cervical lymph nodes, BT-11 cream 2% vs placebo cream. Format: in vivo, mice. As to the method:
MC903-induced model. MC903 (2 nM in 20 uL ethanol) was applied to the dorsal ear skin three times per week for nine applications. BT-11 topical cream (2%) (Formula F3 is Table 2) was applied to the ear daily. Mice were scored for erythema, scaling and skin thickness, summarized into a composite disease activity index score through day 19. Analysis. Cervical lymph nodes were excised and crushed by microscope slides. Red blood cells were hypotonically lysed from the resultant suspension. Samples were filtered, washed and centrifuged prior to staining. Production of IFNγ, IL-5, and IL-4 were quantified from CD3+CD4+ T cells by flow cytometry.

Experiment [3] relates to Imiquimod (IMQ)-induced psoriasis in C57BL/6 mice. Briefly: Imiquimod (IMQ)-induced model of psoriasis, topical treatment, PASI scoring. Format: in vivo. The conditions noted are these: BT-11 dihydrochloride salt 200 μg in DMSO, vs DMSO control, day 7. How it is done:
as §1

Experiment [4] has as its system MC903-induced atopic dermatitis in mice. Briefly: MC903-induced model of atopic dermatitis, topical cream, disease activity index scoring. The conditions noted are these: BT-11 topical cream 2% (Formula F3) daily to the ear, vs placebo cream. Format: in vivo. As to the method:
MC903-induced model. MC903 (2 nM in 20 uL ethanol) was applied to the dorsal ear skin three times per week for nine applications. BT-11 topical cream (2%) (Formula F3 is Table 2) was applied to the ear daily. Mice were scored for erythema, scaling and skin thickness, summarized into a composite disease activity index score through day 19.

As for `O=C(c1cccc(-c2nc3ccccc3[nH]2)n1)N1CCN(C(=O)c2cccc(-c3nc4ccccc4[nH]3)n2)CC1` [BT-11, piperazine-1,4-diylbis((6-(1H-benzo[d]imidazo-2-yl)pyridine-2-yl)methanone)], the “splenic proportion of TNF-positive CD4+ T cells” value in experiment [1] (FIG. 1B) is listed as “reduced”. In addition, in experiment [1] (FIG. 1C), the “splenic proportion of IL-17-positive CD4+ T cells” value is listed as “reduced”. For the same compound, in experiment [1] (FIG. 1D), the “splenic proportion of IL-21-positive CD4+ T cells” value is “reduced”. In addition, in experiment [1] (FIG. 1E), the “splenic proportion of IL-6+ cells within all CD45+ immune cells” value was “reduction”. The “cervical lymph node proportion of IFNγ-positive CD4+ T cells” value in experiment [2] (FIG. 2B) is “reduced”. Besides, in experiment [2] (FIG. 2C), the “cervical lymph node proportion of IL-4-positive CD4+ T cells” value was “reduced”. Moreover, in experiment [2] (FIG. 2D), the “cervical lymph node proportion of IL-5-positive CD4+ T cells” value is recorded as “reduced”. Moreover, the “PASI subscores (erythema, scaling, skin thickness)” value in experiment [3] was “reductions in each subscore”. Besides, the “disease activity subscores (erythema, scaling, skin thickness)” value in experiment [4] was “reductions in each subscore”. For the same compound, the “reduction of severity of disease (composite disease activity index score)” value in experiment [4] (through day 19, FIG. 2A) is recorded as “approximately 70%”.
